Measured values published in patent US20100284966A1 (priority 2005, published 2010).

Tested on: HCV replicon

## Cn1cnc([N+](=O)[O-])c1Sc1ncnc2[nH]cnc12 [AZA]
  fewer cells (toxicity): ~10%
